Measurements from paper PMC8571951, “An activity‐based bioprobe differentiates a novel small molecule inhibitor from a LOXL2 antibody and provides renewed promise for anti‐fibrotic therapeutic strategies” (Clinical and Translational Medicine, 2021).

Columns and labels:
[1] = test system: streptozotocin and high fat diet-induced model of NASH; experiment: Streptozotocin and high fat diet-induced mouse model of NASH; assay type: in vivo
Method: PXS-5338 was evaluated in a 14-week mouse model of NASH (Takakura, Koido et al. 2014), dosing therapeutically at 10 mg/kg from weeks 8-12 and increasing to 30 mg/kg from weeks 12-14. […] Telmisartan served as a positive pharmacological control.

LOXL2 = target: T1, LOXL2 (Rattus norvegicus, UniProt B5DF27); experiment: Ex vivo LOXL2 activity after oral dosing in rats (PXS-5878/Simoa); conditions: 30 mg/kg oral
T1 construct: from tissue; host or cells: rat plasma and lung
T1 sequence (B5DF27 26-776): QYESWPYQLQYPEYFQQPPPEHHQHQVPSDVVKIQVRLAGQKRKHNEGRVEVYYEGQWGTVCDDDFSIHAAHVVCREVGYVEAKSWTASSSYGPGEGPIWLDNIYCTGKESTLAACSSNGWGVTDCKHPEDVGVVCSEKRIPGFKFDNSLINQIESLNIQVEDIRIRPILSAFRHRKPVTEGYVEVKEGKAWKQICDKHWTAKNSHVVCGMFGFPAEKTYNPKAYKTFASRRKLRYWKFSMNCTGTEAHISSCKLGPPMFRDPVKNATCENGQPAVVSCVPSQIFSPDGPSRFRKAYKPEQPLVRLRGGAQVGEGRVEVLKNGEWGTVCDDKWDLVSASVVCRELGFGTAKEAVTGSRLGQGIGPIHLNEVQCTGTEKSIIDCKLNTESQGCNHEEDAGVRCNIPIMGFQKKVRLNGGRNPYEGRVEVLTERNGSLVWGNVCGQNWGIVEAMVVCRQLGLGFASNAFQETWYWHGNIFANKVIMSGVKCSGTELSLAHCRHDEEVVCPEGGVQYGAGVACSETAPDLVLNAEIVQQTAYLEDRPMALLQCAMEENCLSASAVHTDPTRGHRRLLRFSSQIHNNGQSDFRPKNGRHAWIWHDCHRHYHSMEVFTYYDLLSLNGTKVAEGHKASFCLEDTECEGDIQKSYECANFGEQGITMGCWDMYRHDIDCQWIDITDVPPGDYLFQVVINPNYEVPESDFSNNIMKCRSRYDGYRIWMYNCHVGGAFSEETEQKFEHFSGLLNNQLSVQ
Method: (§1) FIGURE 2 Characteristics of PXS‐5338 and inhibition of lysyl oxidase‐like 2 (LOXL2) enzymatic activity in vitro and in vivo. (A) Chemical structure of PXS‐5338. […] (B) Tissue levels of PXS‐5338 measured 1 and 4 h after a single oral dose of 30 mg/kg in the rat. […] Average data from three different animals. (C) Concentration‐dependent inhibition of native […] LOX and rh LOXL1‐4 in a standard Amplex Red assay with 30 min pre‐incubation; n ≥3 independent experiments, standard error of mean (SEM). (D) PXS‐5338 inhibits rh LOXL2 in a time‐dependent manner, with increasing potency observed upon longer incubation with the enzyme. LOXL2 activity data devised from Amplex Red assay using putrescine as substrate and varying pre‐incubation times; n ≥3 independent experiments, standard error of mean (SEM). […] AB0023 and the corresponding isotype control antibody GS834298 were kindly provided by Gilead. Concentration‐response curves for the pan‐LOX inhibitor BAPN and LOXL2‐selective inhibitor PXS‐5338 are included for comparison. Data represented as mean ± SD with n = 5/concentration. […] To enable translation of preclinical data into the clinic, human plasma was incubated with different concentrations of PXS‐5338 for 30 min and the PXS‐5878/Simoa® platform used to measure the residual activity. […]

[2] = Tissue levels after single oral dose in the rat; assay type: in vivo; conditions: single oral dose 30 mg/kg, 1 and 4 h
Method: as §1

[3] = 10 mg/kg weeks 8-12, 30 mg/kg weeks 12-14

Row | Inhibition of LOXL2 activity in the lung (as in plasma) (LOXL2; 4 h) | Inhibition of LOXL2 activity remaining (LOXL2; 24 h) | SMILES | Collagen content (hydroxyproline) [1, 3] | Fibrosis, fibrotic area (picrosirius red staining) [1, 3] | Hepatocyte ballooning [1, 3] | Immature and mature crosslinks (DHLNL and PYD) [1, 3] | NASH scoring ([1]; 10 mg/kg weeks 8-12, 30 mg/kg weeks 12-14, vs NASH group) | Tissue penetration / distribution [2]
1 |  |  | CC(C)c1c(Cc2ccc(S(C)(=O)=O)nc2)c2ncccc2n1C/C(F)=C/CN [PXS-5338] | significant reduction in collagen content | significantly attenuated fibrosis | reduction in hepatocyte ballooning | reduction in immature and mature crosslinks | significantly decreased NASH scoring | 
2 | almost complete inhibition | no inhibition remained | CC(C)c1c(Cc2ccc(S(C)(=O)=O)nc2)c2ncccc2n1C/C(F)=C/CN [PXS‐5338] |  |  |  |  |  | good penetration, with preferential distribution to the liver followed by the kidney, lung and heart
